Values of other authors in US20030082109A1, “Dextrorotary nicotine for smoking cessation” (priority 2001, published 2003).
Read-outs that look alike come from different tables or passages of the source.

Experiments:
[1] = given amount of d-isomer vs like amount of natural l-isomer, in a person
[2] = system: living organisms; conditions: compared with l-isomer nicotine, found and reported
[3] = use as alternative alkaloid in smoking substitute; found and reported

SMILES | sensations and satisfaction relative to a like amount of l-isomer nicotine [1] | toxicity relative to the natural tobacco-derived l-isomer of nicotine [2] | toxicity relative to the natural tobacco-derived l-isomer of nicotine ([2]; listed as dextrorotary isomer of nicotine) | adverse side effects [3]
CN1CCCC1c1cccnc1 (stereo not drawn) [d-isomer of nicotine, 1 methyl-2-(3-Pyridyl) pyrrolidine] | same sensations and satisfaction | one half as toxic | half as toxic | 
CN1[C@@H](CC(=O)c2ccccc2)CCC[C@H]1C[C@H](O)c1ccccc1 [lobeline] |  |  |  | adverse side effects, which are worse than tobacco withdrawal symptoms
